The test system of data set [1] is GL261 cells. In words: cells. The note with it: for IC50: Mus musculus, read-out: IC50 (MTT assay). It counts as cell-based, mouse. The method, then: The effect of TmHg and EtHg on the viability of GL261 and N9 cells was evaluated by the MTT assay as previously described ([Branco et al., 2014]). Briefly, cells (5 × 10^3) were seeded in 96-well plates (Nunc®) and incubated at 37°C for 24 h to allow proper adherence to plates. Afterwards, TmHg and EtHg (0, 0.5, 1, 2.5, and 5 μM) were added to wells. The same procedure was carried out to evaluate the effect of TMZ on the cellular viability of GL261 and DMSO at a final concentration of 0.1% was added as a control group. For co-exposure, the addition of the mercury compounds (EtHg—1 and 2 μM; TmHg—1 and 2 µM) under study followed the addition of TMZ (200 µM).
Cell viability was determined at the time of addition of the compounds (0 h) and after 24, 48, and 72 h of exposure by adding MTT to a final concentration of 400 μg/ml per well and incubating at 37°C for 4 h. After incubation, the medium was removed, and the formazan crystals were dissolved in a 4:1 DMSO/glycine buffer (pH 10.5). After shaking for 15 min, the viability was evaluated through the measurement of formazan absorption at 550 nm on a microplate reader (Zenyth 3100, Anthos Labtec Instruments) ([Branco et al., 2014]).
The IC50 is the concentration of a compound that decreases MTT reduction by 50% relative to the non-treated control at each time point.
In general terms: Tetrazolium dyes change colour on reduction, which living cells bring about.

Data set [2] has as its system GL261 cells. Briefly: cells. Format: cell-based, mouse. The method, then:
Cells were seeded in 96-well plates for 24 h prior to the addition of TmHg, EtHg (1 µM), TMZ (200, 400, and 800 µM), and for the 48 h end point the co-exposure of TMZ 200 µM with 1 µM EtHg and 1 µM TmHg. After exposure for 24 and 48 h, the supernatant was transferred to a fresh plate and a lysis buffer (10×) (Thermo Scientific™ Pierce™) was added to wells containing cells and incubated at 37°C for 45 min. LDH activity was evaluated using LDH Cytotoxicity Assay Kit from Thermo Scientific™ Pierce™ in the supernatant and lysate by the addition of lactate (substrate), a tetrazolium salt, and NAD^+ (cofactor) (Reaction Mixture), according to the manufacturer’s instructions. Following 30 min of incubation in the dark at room temperature, LDH release was assessed by measuring the absorbance at 490 and 680 nm in a microplate reader (Omega BMG LABTECH). The release of LDH was quantified as the ratio between the amount in the supernatant and total LDH (supernatant + lysate) ([Branco et al., 2017]).

Details of data set [3]: method as in JECFA 2004, WHO Technical Report Series 922. Conditions: ref JECFA 2004, WHO Technical Report Series 922; cited from earlier work.

Read-outs that look alike come from different tables or passages of the source. Bounds are passed on as bounds.

The term IC50 denotes the concentration needed to halve the response being measured. The EC50 is the concentration giving half of the maximal effect.

Consider `Cn1nnc2c(C(N)=O)ncn2c1=O` [TMZ, temozolomide], for which, in data set [1] (GL261, 24 h exposure, maximal effect), the “reduction of viability (MTT)” value is recorded as ≤ 40%. The IC50 came to 444 ± 60 µM in data set [1] (GL261, 48 h exposure) and 276 ± 7 µM in data set [1] (GL261, 72 h exposure). Besides, the “change of LDH levels” value in data set [2] (GL261, 200 µM TMZ alone) was “did not change the levels of LDH”. The EC50 in data set [2] (Mus musculus, GL261, 48 h exposure, read-out: EC50 (LDH assay)) is > 800 µM.
Turning to `[CH3][Hg][Cl]` [methylmercury], the “safe concentration of intake without appearance of neurological disorders” value in data set [3] is given as 1.6 µg/Kg b.w./week.
